Reference: ChEMBL document CHEMBL5705896 (ACS Chem Biol, 2013)
The source made the active and inactive calls. The calls are words filed in the database; no cut-off is given here.

Experiments:
[1] = molecular target: Interleukin-1 receptor-associated kinase 4 (Homo sapiens) (UniProt Q9NWZ3); test: Inhibition of full length human N-terminal GST tagged IRAK4 (1 to 460 end residues) expressed in baculovirus expression system using IRAK1 as substrate at 10 uM by mobility shift assay relative to control
[2] = molecular target: Tyrosine-protein kinase CSK (Homo sapiens) (UniProt P41240); test: Inhibition of full length human N-terminal GST tagged CSK (1 to 450 end residues) expressed in baculovirus expression system using Srctide as substrate at 10 uM by mobility shift assay relative to control
[3] = molecular target: 5-hydroxytryptamine receptor 1B (Homo sapiens) (UniProt P28222); test: Inhibition of 5-HT1B receptor (unknown origin) at 10 uM by radioligand binding assay relative to control
[4] = molecular target: Histone-lysine N-methyltransferase SETD7 (Homo sapiens, UniProt Q8WTS6); test: Inhibition of SETD7 (unknown origin) using [3H-SAM] as substrate incubated for 1 hr by scintillation proximity assay
[5] = molecular target: Protein arginine N-methyltransferase 1 (Homo sapiens, UniProt Q99873); test: Inhibition of PRMT1 (unknown origin) using [3H-SAM] as substrate incubated for 1 hr by scintillation proximity assay
[6] = molecular target: Protein arginine N-methyltransferase 3 (Homo sapiens, UniProt O60678); test: Inhibition of PRMT3 (unknown origin) using [3H-SAM] as substrate incubated for 1 hr by scintillation proximity assay
[7] = molecular target: Proto-oncogene tyrosine-protein kinase Src (Homo sapiens) (UniProt P12931); test: Inhibition of full length human N-terminal GST tagged SRC (1 to 536 end residues) expressed in baculovirus expression system using Srctide as substrate at 10 uM by mobility shift assay relative to control
[8] = molecular target: Tyrosine-protein kinase Lck (Homo sapiens) (UniProt P06239); test: Inhibition of full length human N-terminal GST tagged LCK (1 to 509 end residues) expressed in baculovirus expression system using Srctide as substrate at 10 uM by mobility shift assay relative to control
[9] = molecular target: Histamine H2 receptor (Homo sapiens) (UniProt P25021); test: Inhibition of H2 receptor (unknown origin) at 10 uM by radioligand binding assay relative to control
[10] = molecular target: Receptor-type tyrosine-protein kinase FLT3 (Homo sapiens) (UniProt P36888); test: Inhibition of human cytoplasmic domain N-terminal GST tagged FLT3 (564 to 993 end residues) expressed in baculovirus expression system using Srctide as substrate at 10 uM by mobility shift assay relative to control
[11] = molecular target: Serine/threonine-protein kinase pim-1 (Homo sapiens) (UniProt P11309); test: Inhibition of full length human N-terminal his-tagged PIM1 (1 to 313 end residues) expressed in baculovirus expression system using S6K2 peptide as substrate at 10 uM by mobility shift assay relative to control
[12] = molecular target: Delta-type opioid receptor (Homo sapiens) (UniProt P41143); test: Inhibition of DOR (unknown origin) at 10 uM by radioligand binding assay relative to control
[13] = molecular target: Histone-lysine N-methyltransferase EHMT1 (Homo sapiens, UniProt Q9H9B1); test: Inhibition of EHMT1 (unknown origin) using [3H-SAM] as substrate incubated for 1 hr by scintillation proximity assay
[14] = molecular target: Sigma non-opioid intracellular receptor 1 (Homo sapiens) (UniProt Q99720); test: Inhibition of Sigma1 receptor (unknown origin) at 10 uM by radioligand binding assay relative to control
[15] = molecular target: Translocator protein (Homo sapiens) (UniProt P30536); test: Inhibition of PBR (unknown origin) at 10 uM by radioligand binding assay relative to control
[16] = molecular target: Alpha-1A adrenergic receptor (Homo sapiens) (UniProt P35348); test: Inhibition of Alpha1A receptor (unknown origin) at 10 uM by radioligand binding assay relative to control
[17] = molecular target: Serotonin 3 (5-HT3) receptor (Homo sapiens) (UniProt P46098+A5X5Y0+O95264+Q70Z44+Q8WXA8); test: Inhibition of 5-HT3 receptor (unknown origin) at 10 uM by radioligand binding assay relative to control; type: protein-complex assay
[18] = molecular target: 5-hydroxytryptamine receptor 6 (Homo sapiens) (UniProt P50406); test: Inhibition of 5-HT6 receptor (unknown origin) at 10 uM by radioligand binding assay relative to control
[19] = molecular target: Alpha-2B adrenergic receptor (Homo sapiens) (UniProt P18089); test: Inhibition of Alpha2B receptor (unknown origin) at 10 uM by radioligand binding assay relative to control
[20] = molecular target: Serine/threonine-protein kinase Sgk1 (Homo sapiens) (UniProt O00141); test: Inhibition of truncated human N-terminal GST-tagged SGK (61 to 431 end residues) expressed in baculovirus expression system using SGKtide as substrate at 10 uM by mobility shift assay relative to control
[21] = molecular target: Histone-lysine N-methyltransferase 2A (Homo sapiens, UniProt Q03164); test: Inhibition of MLL1 (unknown origin) using [3H-SAM] as substrate incubated for 1 hr by scintillation proximity assay
[22] = Inhibition of full length human N-terminal his tagged ABL (2 to 1130 end residues) expressed in baculovirus expression system using ABLtide as substrate at 10 uM by mobility shift assay relative to control; conditions: condition weaver syndrome
[23] = molecular target: 5-hydroxytryptamine receptor 1D (Homo sapiens) (UniProt P28221); test: Inhibition of 5-HT1D receptor (unknown origin) at 10 uM by radioligand binding assay relative to control
[24] = molecular target: Muscarinic acetylcholine receptor M3 (Homo sapiens) (UniProt P20309); test: Inhibition of M3 receptor (unknown origin) at 10 uM by radioligand binding assay relative to control
[25] = molecular target: Tyrosine-protein kinase receptor TYRO3 (Homo sapiens) (UniProt Q06418); test: Inhibition of human cytoplasmic domain N-terminal GST tagged TYRO3 (453 to 890 end residues) expressed in baculovirus expression system using CSKtide as substrate at 10 uM by mobility shift assay relative to control
[26] = molecular target: Histone-lysine N-methyltransferase EZH2 (Homo sapiens, UniProt Q15910); test: Inhibition of EZH2 methyltransferase activity (unknown origin) in PRC2 complex using 3H-SAM as substrate by Scintillation proximity assay
[27] = Cmax in Swiss albino mouse at 15 to 150 mg/kg administered as single ip dose measured upto 24 hrs; type: ADME, organism-based; conditions: in vivo, dose 15-150 mg/kg
[28] = molecular target: Protein arginine N-methyltransferase 5 (Homo sapiens, UniProt O14744); test: Inhibition of PRMT5 (unknown origin) using [3H-SAM] as substrate incubated for 1 hr by scintillation proximity assay
[29] = molecular target: Alpha-2C adrenergic receptor (Homo sapiens) (UniProt P18825); test: Inhibition of Alpha2C receptor (unknown origin) at 10 uM by radioligand binding assay relative to control
DB = test: Downregulation of H3K27me3 level in human DB cells at 3000 nM measured after 3 days; type: functional, cell-based; conditions: time 3.0 day

CCCc1cc(C)[nH]c(=O)c1CNC(=O)c1cc(-c2ccc(N3CCN(C(C)C)CC3)nc2)cc2c1cnn2C(C)C
inhibition [1]: -7%
inhibition [2]: -4%
inhibition [3]: 44%
IC50 [4]: > 100 µM
IC50 [5]: > 100 µM
IC50 [6]: > 100 µM
inhibition [7]: -1%
inhibition [8]: 0%
inhibition [9]: 30%
inhibition [10]: 16%
inhibition [11]: 1%
inhibition [12]: 21%
IC50 [13]: > 100 µM
inhibition [14]: 57%
inhibition [15]: 31%
inhibition [16]: 3%
inhibition [17]: 12%
inhibition [18]: 11%
inhibition [19]: 48%
inhibition [20]: -3%
IC50 [21]: > 100 µM
inhibition at 10 µM [22]: -4%
inhibition [23]: 50%
inhibition [24]: 10%
inhibition [25]: -1%
IC50 [26]: < 0.01 µM
Cmax [27]: 9.7 µM
IC50 [28]: > 100 µM
inhibition [29]: 47%
Activity (DB): Active
